Experimental data taken from the supplement of paper PMC11451515.

Assays:
[1] = system: NOMO1; experiment: AUC of viability dose-response curve (% viability x log10 dose units); higher = less sensitive; details: 48 h
Procedure, shortened: (§1)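 Over 48 h at 37°C, leukemia cells in 1536-well plates (500 or 1000 cells/well), adapted to each medium, received library compounds in DMSO at 11 threefold doses from 47 μM to 0.79 nM. CellTiter-Glo One luminescence, normalised per plate to DMSO and cell-free wells, was fitted by a four-parameter log-logistic function of log10 dose. The area under the curve was then integrated by trapezoidal rule, after scaling curves above full viability and removing those that failed quality control.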

[2] = system: P12-Ichikawa; experiment: as above; details: 48 h
Procedure, shortened: as §1

[3] = RPMI 5 mM glucose + 10% dialyzed FBS

Row | Compound | AUC of viability dose-response curve ([1]; HPLM + 10% dialyzed FBS) | AUC of viability dose-response curve ([1]; RPMI 5 mM glucose + 10% FBS) | AUC of viability dose-response curve [1, 3] | AUC of viability dose-response curve ([2]; HPLM + 10% dialyzed FBS) | AUC of viability dose-response curve ([2]; RPMI 5 mM glucose + 10% FBS) | AUC of viability dose-response curve [2, 3]
1 | CC1CCN(c2cc(N3CCN(C)CC3)ccc2NC(=O)c2cc(C#N)c[nH]2)CC1 | 457 | 463 | 454 | 450 | 453 | 453
2 | CC(C)C1=N[N](C\2=C1C(=O)N\C(=N2)CC3=CC=C(OCCO)C=C3)C4=C(Cl)C=CC=C4Cl | 225 | 226 | 222 | 244 | 241 | 239
3 | CC(=O)O/N=C1/C(=C2\C(=O)Nc3cc(Br)ccc32)Nc2ccccc21 | 431 | 450 | 443 | 439 | 443 | 437
